Test results taken from EPA's ToxValDB 9.5 (doi:10.2903/j.efsa.2010.1523).
Converted amounts (≈) assume the structure as drawn.

Legend:
[1] = tested on: Aphidius rhopalosiphi; experiment: LR50; higher = less toxic; settings: not reported; mortality
[2] = tested on: Oryctolagus sp.
[3] = tested on: Tagia sp.; settings: acute; duration: 14 days; mortality
[4] = tested on: Mus musculus; settings: acute; oral; mortality
[5] = tested on: Daphnia magna; settings: chronic/long-term; duration: 21 days; reproduction
[6] = tested on: Coturnix japonica; settings: reproduction developmental
[7] = tested on: Rattus norvegicus; settings: acute; oral; mortality
[8] = tested on: Canidae; settings: chronic; duration: 1 years; oral; Dog Other; hematological
[9] = tested on: Colinus virginianus; settings: acute, oral, mortality
[10] = tested on: Oncorhynchus mykiss
[11] = tested on: Apis mellifera; settings: acute; duration: 48 hours; dermal; mortality

Cc1cnc2c(C(=O)O)c(Cl)ccc2c1 [Quinmerac]
LR50 [1]: > 500 g/ha
NOEL ([2]; chronic): 100 mg/kg-day
NOAEL ([2]; developmental, development): 30 mg/kg-day
LC50 [3]: > 1000 mg/kg
LD50 [4]: > 5000 mg/kg-day
NOEC [5]: 100 mg/L
NOEC [6]: 173 mg/kg-day
LD50 [7]: > 5000 mg/kg-day
NOAEL [8]: 7.9 mg/kg-day
LC50 ([9]; diet): > 933 mg/kg-day
LD50 [9]: > 2000 mg/kg-day
LC50 ([10]; acute, duration: 96 hours, mortality): 86.8 µg/mL (≈ 392 µM)
NOEC ([10]; chronic/long-term, duration: 28 days, growth): 3.16 mg/L
LD50 [11]: > 100 µg/piece
